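Each compound was tested at five concentrations against cells in 96-well plates for 48 hours. GI50: concentration for 50% inhibition of growth.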 Calls of active or inactive are those of the source. No stated cut-off is given here; in the data, active = GI50 up to about 1.1 µM and inactive = higher.

This note sets out measurements from ChEMBL document CHEMBL1201862, “PubChem BioAssay data set” (2004).

Among the test systems are CCRF-CEM; NCI-H23; SK-OV-3; HOP-92; DU-145; OVCAR-3; SN12C; NCI-H226; COLO 205; SF-268; K562; UO-31; SW-620; MOLT-4; SK-MEL-28; SK-MEL-2; TK-10; RPMI-8226; MDA-MB-231; OVCAR-4.
Assay in all cases: growth of human tumour cells (NCI), 48 h

With `CSc1ccc(/C=C2\N=C(c3ccccc3)N(NC(=O)c3c(Cl)c(Cl)c(Cl)c(Cl)c3-c3nc4ccccc4[nH]3)C2=O)cc1`, the GI50 was 25.9 µM (inactive) in the assay on CCRF-CEM; 24.7 µM (inactive) in the assay with NCI-H23; 5.48 µM (inactive) with SK-OV-3; 17.5 µM (inactive) in the assay on HOP-92; 28.4 µM (inactive) in the assay with DU-145; 26.6 µM (inactive) in the assay with OVCAR-3. For the same compound, the GI50 was 31 µM (inactive) in the assay on SN12C; 14.2 µM (inactive) in the assay with NCI-H226; 22.4 µM (inactive) in the assay on COLO 205; 36.9 µM (inactive) in the assay on SF-268; 5.5 µM (inactive) in the assay with K562; 27.4 µM (inactive) with UO-31. Also, the GI50 with SW-620 is 29.9 µM (inactive); in the assay with MOLT-4, 20.7 µM (inactive); in the assay with SK-MEL-28, 30.8 µM (inactive); with SK-MEL-2, 34.9 µM (inactive).

As for `CNc1nc(N)c(N=O)c(Nc2ccc(Br)cc2)n1`, the GI50 in the assay on CCRF-CEM is 81.8 µM (inactive); in the assay with NCI-H23, > 100 µM (inactive); in the assay with TK-10, > 100 µM (inactive); in the assay with DU-145, > 100 µM (inactive); in the assay on RPMI-8226, > 100 µM (inactive); in the assay on OVCAR-3, > 100 µM (inactive). For the same compound, the GI50 was > 100 µM (inactive) in the assay with SN12C; > 100 µM (inactive) in the assay on COLO 205; 72.9 µM (inactive) in the assay with SF-268; > 100 µM (inactive) in the assay with K562; 9.57 µM (inactive) in the assay on UO-31; > 100 µM (inactive) in the assay with MDA-MB-231. Besides, the GI50 in the assay on SW-620 was > 100 µM (inactive); in the assay on MOLT-4 it was 68.4 µM (inactive); in the assay with SK-MEL-28, > 100 µM (inactive); with SK-MEL-2, > 100 µM (inactive).

Regarding `COC1=C(OC)C(=O)C(Cc2c(Cl)nc3sccn23)=C(C)C1=O`, the GI50 is 2.02 µM (inactive) with CCRF-CEM; 5.36 µM (inactive) in the assay on NCI-H23; 10.1 µM (inactive) in the assay with SK-OV-3; 12.9 µM (inactive) in the assay with TK-10; 13.5 µM (inactive) with DU-145; 2.34 µM (inactive) with RPMI-8226. In addition, the GI50 is 12.7 µM (inactive) in the assay with OVCAR-3; 13.4 µM (inactive) in the assay on SN12C; 15.7 µM (inactive) in the assay on COLO 205; 14.5 µM (inactive) in the assay with SF-268; 2.96 µM (inactive) in the assay on OVCAR-4; 11 µM (inactive) in the assay on K562. Also, the GI50 with UO-31 was 10.6 µM (inactive); in the assay on MDA-MB-231 it was 2.38 µM (inactive); in the assay on SW-620 it was 13.7 µM (inactive); in the assay with MOLT-4 it was 1.85 µM (inactive); with SK-MEL-28, 12 µM (inactive); in the assay with SK-MEL-2, 14.1 µM (inactive).

Regarding `Clc1cccc(Cl)c1C1SCC2=Nc3ccccc3CN21` (configuration not stated), the GI50 in the assay with CCRF-CEM was 32.4 µM (inactive); in the assay with NCI-H23, 14.6 µM (inactive); in the assay with SK-OV-3, 20.6 µM (inactive); with TK-10, > 100 µM (inactive); in the assay on HOP-92, 40.7 µM (inactive); with DU-145, 25 µM (inactive). Also, the GI50 was 17.1 µM (inactive) in the assay with RPMI-8226; 15 µM (inactive) with OVCAR-3; 46.7 µM (inactive) in the assay with SN12C; 14.1 µM (inactive) with COLO 205; 39.9 µM (inactive) in the assay on SF-268; 80.4 µM (inactive) in the assay with OVCAR-4. In addition, the GI50 in the assay with K562 was 31.3 µM (inactive); in the assay with UO-31 it was 17.3 µM (inactive); with MDA-MB-231, 42.9 µM (inactive); with SW-620, 33.3 µM (inactive); in the assay on MOLT-4 it was 31.3 µM (inactive); in the assay with SK-MEL-28 it was 23.3 µM (inactive).

`N#CCCC1(CCC#N)CCCCCCC(CCC#N)(CCC#N)C(=O)C1=O`: the GI50 with NCI-H23, with SK-OV-3, in the assay with TK-10, in the assay on HOP-92, in the assay on DU-145 and in the assay on OVCAR-3 was > 100 µM (inactive) in each case. Also, the GI50 was 58.2 µM (inactive) in the assay with SN12C; 36.8 µM (inactive) with COLO 205; > 100 µM (inactive) in the assay on SF-268; > 100 µM (inactive) in the assay on OVCAR-4; > 100 µM (inactive) in the assay on K562; 3.08 µM (inactive) in the assay with UO-31. Also, the GI50 in the assay on SW-620, in the assay with SK-MEL-28 and in the assay with SK-MEL-2 was > 100 µM (inactive) throughout.

In the case of `CC(CC(=O)CO[C@H]1[C@H](O)[C@@H](O)[C@@H](O)[C@@H]2NC(=O)c3c(cc4c(c3O)OCO4)[C@H]21)OC1OC(CO)C(O)C(O)C1O` (some centres not stated), the GI50 was 0.182 µM (active) in the assay with CCRF-CEM; 0.441 µM (active) in the assay on NCI-H23; 0.469 µM (active) in the assay on SK-OV-3; 0.408 µM (active) in the assay on TK-10; 0.51 µM (active) in the assay on HOP-92; 0.397 µM (active) in the assay with RPMI-8226. In addition, the GI50 in the assay with OVCAR-3 is 0.451 µM (active); with SN12C, 0.322 µM (active); in the assay with NCI-H226, 0.522 µM (active); in the assay with COLO 205, 0.272 µM (active); in the assay on SF-268 it was 0.367 µM (active); with OVCAR-4, 0.277 µM (active). Moreover, the GI50 with K562 was 0.309 µM (active); in the assay on UO-31, 1.38 µM (inactive); in the assay on MDA-MB-231, 0.355 µM (active); in the assay on SW-620, 0.374 µM (active); with MOLT-4, 0.25 µM (active); with SK-MEL-28, 0.56 µM (active). Further, the GI50 in the assay with SK-MEL-2 is 0.242 µM (active).

`COc1ccc(Nc2nc3ccccc3n3cccc23)cc1OC`: the GI50 in the assay with CCRF-CEM was 1.05 µM (active); in the assay on NCI-H23, 14.8 µM (inactive); in the assay with SK-OV-3 it was 27 µM (inactive); in the assay on TK-10, 16.5 µM (inactive); in the assay on HOP-92, 34.4 µM (inactive); in the assay with DU-145, 17.1 µM (inactive). Moreover, the GI50 in the assay with RPMI-8226 is 11.8 µM (inactive); in the assay on OVCAR-3, 19.1 µM (inactive); in the assay on COLO 205, 14.4 µM (inactive); in the assay with SF-268, 21.9 µM (inactive); with K562, 21 µM (inactive); in the assay on UO-31, 19.5 µM (inactive). Moreover, the GI50 with MDA-MB-231 is 15.3 µM (inactive); with SW-620, 16.2 µM (inactive); in the assay on MOLT-4 it was 9.98 µM (inactive); in the assay with SK-MEL-28, 15.1 µM (inactive); in the assay on SK-MEL-2 it was 19.2 µM (inactive).

Regarding `C/C1=C\CC[C@@]2(C)O[C@@H]2[C@H]2OC(=O)C(C)C2C[C@H]1O` (some centres not stated), the GI50 in the assay on CCRF-CEM, in the assay with NCI-H23, in the assay with SK-OV-3, with TK-10, in the assay on HOP-92 and in the assay with DU-145 was > 100 µM (inactive) throughout. Besides, the GI50 in the assay on RPMI-8226, with SN12C, in the assay on COLO 205, with SF-268, in the assay with OVCAR-4 and in the assay on K562 was > 100 µM (inactive) in each case. For the same compound, the GI50 with UO-31, with MDA-MB-231, with SW-620, in the assay on MOLT-4, in the assay with SK-MEL-28 and in the assay with SK-MEL-2 was > 100 µM (inactive) throughout.
